Measured values from article PMC12567347, “Angiotensin II/Angiotensin I Ratio as a New Pharmacodynamic Parameter for Population Modelling in Healthy Adults and Children with Heart Failure Treated with Enalapril” (Pharmaceutics, 2025).

How the values were obtained:
[1] = molecular target: T1, angiotensin-converting enzyme (ACE) (Homo sapiens, UniProt P12821); assay: Percentage change in the angiotensin II/angiotensin I ratio four hours after the initial enalapril dose in children with heart failure; assay type: in vivo; conditions: eight children with heart failure, four hours after first dose, median 0.06 mg/kg enalapril maleate
T1 construct: from tissue; host or cells: in vivo in human subjects; ACE activity read indirectly from the plasma angiotensin II/angiotensin I ratio
Protocol: In the pharmacokinetic bridging studies, a pharmacokinetic/pharmacodynamic profile was usually obtained in ACE inhibitor-naïve subjects at the initial dose visit, with pharmacokinetic samples collected before and 1, 2, 4, 6, and 12 h after enalapril orodispersible minitablet administration, as well as pharmacodynamic samples collected before and 4 h after administration. Alternatively, the pharmacokinetic/pharmacodynamic profile could also be obtained after reaching steady state at the optimal dose. In this case, the 12 h pharmacokinetic sample was omitted. Single pharmacokinetic and pharmacodynamic samples were collected in immediate succession during the remaining study visits. […]
For the simultaneous determination of several angiotensin peptides, including angiotensin I and angiotensin II, a validated multiplex liquid chromatography high-resolution mass spectrometry method was applied. Following precipitation and solid-phase extraction, the samples were analyzed using a Nexera XR liquid chromatography system (Shimadzu, Duisburg, Germany) coupled to a TripleTOF® 6600 mass spectrometer from AB Sciex (Concord, ON, Canada). […]
The percentage change in the angiotensin II/angiotensin I ratio was calculated in children with heart failure in whom an angiotensin II/angiotensin I ratio was available before the first dose of enalapril and four hours afterwards.

ACE activity = system: ACE activity; set-up: method as in PMID 8512763; conditions: eight infants with congestive heart failure, after four hours, single dose of 0.25 mg/kg enalapril maleate; cited from earlier work
[2] = Serum enalaprilat concentrations in children with heart failure treated with enalapril orodispersible minitablets; assay type: in vivo, human; conditions: median first dose 0.06 mg/kg, median daily dose 0.11 mg/kg enalapril maleate
Protocol: For the studies, a dosing regimen with age- and weight-dependent recommended titration doses, target doses, and maximum doses was developed using physiologically based pharmacokinetic simulation (Table S2). The appropriate dosage for each subject was selected based on the judgment of the investigator. Daily doses ≤ 0.25 mg were administered once daily in the morning, and daily doses > 0.25 mg were administered in two equal divided doses in the morning and evening. The required number of orodispersible minitablets with 0.25 mg enalapril maleate or 1 mg enalapril maleate (now approved as Aqumeldi®, Proveca Pharma Limited, Dublin, Ireland) was placed in the patient’s cheek pouch. The orodispersible minitablets rapidly disintegrated into small, easily swallowable particles. To facilitate swallowing, a fluid of the patient’s/parent’s choice (e.g., breast milk, formula milk, cow milk, water) could be administered.
In the pharmacokinetic bridging studies, a pharmacokinetic/pharmacodynamic profile was usually obtained in ACE inhibitor-naïve subjects at the initial dose visit, with pharmacokinetic samples collected before and 1, 2, 4, 6, and 12 h after enalapril orodispersible minitablet administration, as well as pharmacodynamic samples collected before and 4 h after administration. […]

[3] = set-up: method as in PMID 26256099; conditions: parameters estimated in children extrapolated to an adult weight of 70 kg; cited from earlier work

T1 sequence (P12821 30-1306): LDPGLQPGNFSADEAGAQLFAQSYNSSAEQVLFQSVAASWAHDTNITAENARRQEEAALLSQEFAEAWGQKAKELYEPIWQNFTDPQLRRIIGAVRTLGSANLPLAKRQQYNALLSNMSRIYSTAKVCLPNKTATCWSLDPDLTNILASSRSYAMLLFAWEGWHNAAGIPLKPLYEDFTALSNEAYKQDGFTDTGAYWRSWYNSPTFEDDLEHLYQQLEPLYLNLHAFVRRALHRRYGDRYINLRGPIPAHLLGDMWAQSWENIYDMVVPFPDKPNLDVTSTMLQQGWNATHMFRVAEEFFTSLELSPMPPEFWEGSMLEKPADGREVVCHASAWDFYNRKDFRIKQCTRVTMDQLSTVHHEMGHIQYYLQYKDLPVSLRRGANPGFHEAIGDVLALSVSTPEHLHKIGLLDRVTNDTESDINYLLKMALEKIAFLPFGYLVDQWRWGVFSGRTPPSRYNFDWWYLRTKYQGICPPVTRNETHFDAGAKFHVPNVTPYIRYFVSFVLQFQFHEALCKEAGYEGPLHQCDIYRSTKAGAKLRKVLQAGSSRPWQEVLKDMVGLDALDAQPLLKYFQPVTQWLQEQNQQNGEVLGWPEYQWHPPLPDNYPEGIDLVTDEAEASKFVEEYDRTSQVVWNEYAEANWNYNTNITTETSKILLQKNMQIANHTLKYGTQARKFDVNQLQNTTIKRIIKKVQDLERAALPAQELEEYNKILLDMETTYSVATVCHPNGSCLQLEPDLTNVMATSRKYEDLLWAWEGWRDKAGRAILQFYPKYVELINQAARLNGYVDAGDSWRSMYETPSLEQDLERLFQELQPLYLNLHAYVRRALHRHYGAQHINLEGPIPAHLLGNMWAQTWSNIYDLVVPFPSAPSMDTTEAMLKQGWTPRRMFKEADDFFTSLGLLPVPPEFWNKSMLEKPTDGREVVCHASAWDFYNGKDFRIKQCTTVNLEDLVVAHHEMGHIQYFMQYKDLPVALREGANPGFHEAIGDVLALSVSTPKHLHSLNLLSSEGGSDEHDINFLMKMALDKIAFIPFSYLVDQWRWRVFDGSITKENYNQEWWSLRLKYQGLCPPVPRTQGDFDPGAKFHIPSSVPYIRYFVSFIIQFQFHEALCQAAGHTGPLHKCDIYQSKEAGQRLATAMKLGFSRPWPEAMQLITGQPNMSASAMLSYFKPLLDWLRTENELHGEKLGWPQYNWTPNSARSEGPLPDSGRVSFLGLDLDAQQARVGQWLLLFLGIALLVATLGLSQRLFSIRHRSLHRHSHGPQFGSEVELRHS

Compound	decrease in angiotensin II/angiotensin I ratio, median [1] [%]	decrease in angiotensin II/angiotensin I ratio, range [1]	mean inhibition of ACE activity (ACE activity) [%]	highest measured enalaprilat concentration [2] [µg/L]	apparent central volume of distribution of enalaprilat [3] [L]	apparent clearance of enalaprilat [3] [L/h]
CCOC(=O)[C@H](CCc1ccccc1)N[C@@H](C)C(=O)N1CCC[C@H]1C(=O)O [enalapril]	79.3	21.4–92.7%	75.5	–	–	–
C[C@H](N[C@@H](CCc1ccccc1)C(=O)O)C(=O)N1CCC[C@H]1C(=O)O [enalaprilat]	–	–	–	18.3	168.8	18.2
